Data: patent US11192893B2, “Pyrazoloquinazolinone antitumor agents” (The Rockefeller University, priority 2017, dated 2021)

Tested on: Hedgehog pathway activity
Test: Shh-Light luciferase reporter assay of Hedgehog pathway activity (Shh-Light2 cells, SAG-stimulated)
Format: cell-based
Settings: for activity at 2 µM: 2 μM compound, read-out: SHH-light % residual @ 2 μM; for activity at 2 µM / activity at 20 µM: SAG 500 nM; for activity at 20 µM: 20 μM compound, read-out: SHH-light % residual @ 20 μM; for IC50: Table 2, SAG 500 nM, 28-32 hr treatment, read-out: Shh-light IC50
Description: To examine the inhibition of dynein 2 in cell-based assays, an established luciferase reporter-based cellular assay of Hedgehog pathway activity was employed [Taipale et al., Nature. 2000; 406(6799): 1005-9]. Signaling in this pathway depends on the function of dynein 2. In this setting, expression of luciferase driven by Hedgehog pathway activity was inhibited by compound 5 with an IC50 value of 0.9±0.5 μM. […] The potencies of these compounds in this cell-based assay match the rank-order of dynein 2 inhibition in vitro. In these assays, Hedgehog pathway activity was stimulated using the Synthetic Agonist of Smoothened (SAG). This compound competes with many Hedgehog pathway inhibitors for binding to Smoothened, a key node in the signaling pathway.
SHH-Light Assay (Steinman et al. eLife 2017; 6:e25174.)
NIH-3T3 cells stably expressing a luciferase reporter downstream of a Gli binding site (Shh-Light2 cells, RRID: CVCL_2721) were maintained in DMEM with 10% bovine calf serum (BCS). Cells were seeded at a density of 30,000 cells/well in 96-well tissue culture-treated plates (Corning, cat #353072) in 100 μL in DMEM+10% BCS, and incubated for 48 hr (Taipale et al., 2000). Wells were washed briefly with PBS. Next […] of low serum media (DMEM+0.5% BCS) containing smoothened agonist (SAG, 500 nM), and either solvent control (0.2% DMSO) or test compound (serial three-fold dilutions of each inhibitor starting from 20 μM) were added to the wells. After 28-32 hr of inhibitor treatment, cells were washed with 50 μL PBS and lysed for >30 min in 30 μL Passive Lysis Buffer (Promega Dual Luciferase kit, cat E1910). 5 uL of each lysate was transferred to white, solid-bottom 96-well plates (Greiner, cat #655075), followed by rapid addition (within 30 s) of 30 μL of Luciferase Assay Reagent using a multichannel pipette. Luminescence for each condition was read using a Synergy Neo plate reader (5 s integration time per well). Cell line identity was confirmed by measurement of the degree of response to Hedgehog pathway stimulation by the synthetic agonist SAG and using previously published values from our groups and others as references (Firestone et al., 2012; Hyman et al., 2009).

## NC(=O)c1c(CCC(F)(F)F)nn2c(=O)c3ccccc3[nH]c12 [Example 57, 9-Oxo-2-(3,3,3-trifluoropropyl)-4H-pyrazolo[5,1-b]quinazoline-3-carboxamide]
  activity at 2 µM: 67.9%

## N#Cc1c(CCC(F)(F)F)nn2c(=O)c3ccccc3[nH]c12 [Example 58, 9-Oxo-2-(3,3,3-trifluoropropyl)-4H-pyrazolo[5,1-b]quinazoline-3-carbonitrile]
  activity at 2 µM: 55.5%
  activity at 20 µM: 35.1%

## N#Cc1c(-c2ccc(Cl)cc2Cl)nn2c(=O)c3c(OCc4ccccc4)cccc3[nH]c12 [Example 50, 8-Benzyloxy-2-(2,4-dichlorophenyl)-9-oxo-4H-pyrazolo[5,1-b]quinazoline-3-carbonitrile]
  activity at 2 µM: 75.8%

## NC(=O)c1c(COc2ccc(Cl)cc2)nn2c(=O)c3ccccc3[nH]c12 [Example 41, 2-[(4-Chlorophenoxy)methyl]-9-oxo-4H-pyrazolo[5,1-b]quinazoline-3-carboxamide]
  activity at 2 µM: 73.7%

## N#Cc1c(CCC(Cl)(Cl)Cl)nn2c(=O)c3ccccc3[nH]c12 [Example 44, 9-Oxo-2-(3,3,3-trichloropropyl)-4H-pyrazolo[5,1-b]quinazoline-3-carbonitrile]
  activity at 2 µM: 45.8%
  activity at 20 µM: 3.4%

## O=C(O)c1c(-c2ccc(Cl)cc2Cl)nn2c1[nH]c(=O)c1ccccc12 [Example 61, 2-(2,4-Dichlorophenyl)-5-oxo-4H-pyrazolo[1,5-a]quinazoline-3-carboxylic acid]
  activity at 20 µM: 66.7%

## N#Cc1c(CC2CCCCC2)nn2c(=O)c3ccccc3[nH]c12 [Example 46, 2-(Cyclohexylmethyl)-9-oxo-4H-pyrazolo[5,1-b]quinazoline-3-carbonitrile]
  activity at 2 µM: 67.1%
  activity at 20 µM: 5%

## NC(=O)c1c(CCOc2ccc(Cl)cc2)nn2c(=O)c3ccccc3[nH]c12 [Example 47, 2-[2-(4-Chlorophenoxy)ethyl]-9-oxo-4H-pyrazolo[5,1-b]quinazoline-3-carboxamide]
  activity at 2 µM: 54.7%
  activity at 20 µM: 11%

## N#Cc1ccc2c(c1)c(=O)[nH]c1c(C#N)c(C3(c4ccc(Cl)cc4)CC3)nn12 [Example 66, 2-[1-(4-Chlorophenyl)cyclopropyl]-5-oxo-4H-pyrazolo[1,5-a]quinazoline-3,7-dicarbonitrile]
  activity at 2 µM: 39.6%
  activity at 20 µM: -3.8%
  IC50: 1.5 µM

## N#Cc1c(C2CCN(c3ccc(Cl)cc3)CC2)nn2c(=O)c3cc(C(F)(F)F)ccc3[nH]c12 [Example 16, 2-[1-(4-Chlorophenyl)-4-piperidyl]-9-oxo-7-(trifluoromethyl)-4H-pyrazolo[5,1-b]quinazoline-3-carbonitrile]
  activity at 2 µM: 33.7%
  activity at 20 µM: -4.1%

## COc1cccc2[nH]c3c(C#N)c(-c4ccc(Cl)cc4Cl)nn3c(=O)c12 [Example 37, 2-(2,4-Dichlorophenyl)-8-methoxy-9-oxo-4H-pyrazolo[5,1-b]quinazoline-3-carbonitrile]
  activity at 2 µM: 100%
  activity at 20 µM: 18%

## N#Cc1c(-c2ccc(Cl)cc2Cl)nn2c(=O)c3ccc(Cl)cc3[nH]c12 [Example 35, 6-Chloro-2-(2,4-dichlorophenyl)-9-oxo-4H-pyrazolo[5,1-b]quinazoline-3-carbonitrile]
  IC50: 2.1 µM

## N#Cc1c(CC2CC2)nn2c(=O)c3ccccc3[nH]c12 [Example 54, 2-(Cyclopropylmethyl)-9-oxo-4H-pyrazolo[5,1-b]quinazoline-3-carbonitrile]
  activity at 2 µM: 81.7%

## NC(=O)c1c(-c2ccc(Cl)cc2Cl)nn2c(=O)c3ccccc3[nH]c12 [Example 32, 2-(2,4-Dichlorophenyl)-9-oxo-4H-pyrazolo[5,1-b]quinazoline-3-carboxamide]
  activity at 20 µM: 57.5%

## NC(=O)c1c(C2CCC(F)(F)CC2)nn2c(=O)c3ccccc3[nH]c12 [Example 51, 2-(4,4-Difluorocyclohexyl)-9-oxo-4H-pyrazolo[5,1-b]quinazoline-3-carboxamide]
  activity at 2 µM: 92.4%
  activity at 20 µM: 103%

## NC(=O)c1c(CC2CCCCC2)nn2c(=O)c3ccccc3[nH]c12 [Example 45, 2-(Cyclohexylmethyl)-9-oxo-4H-pyrazolo[5,1-b]quinazoline-3-carboxamide]
  activity at 2 µM: 82.4%
  activity at 20 µM: 4%

## N#Cc1c(C2CCC(c3ccc(Cl)cc3)CC2)nn2c(=O)c3cc(Cl)ccc3[nH]c12 (centres unmarked) [Example 17, 7-Chloro-2-[4-(4-chlorophenyl)cyclohexyl]-9-oxo-4H-pyrazolo[5,1-b]quinazoline-3-carbonitrile]
  activity at 2 µM: -2.3%
  activity at 20 µM: -3.9%
  IC50: 0.6 µM

## COc1ccc2c(c1)c(=O)[nH]c1c(C#N)c(C3(c4ccc(Cl)cc4)CC3)nn12 [Example 64, 2-[1-(4-Chlorophenyl)cyclopropyl]-7-methoxy-5-oxo-4H-pyrazolo[1,5-a]quinazoline-3-carbonitrile]
  activity at 2 µM: 91.6%
  activity at 20 µM: 90.4%

## NC(=O)c1c(CCC(Cl)(Cl)Cl)nn2c(=O)c3ccccc3[nH]c12 [Example 43, 9-Oxo-2-(3,3,3-trichloropropyl)-4,9-dihydropyrazolo[5,1-b]quinazoline-3-carboxamide]
  activity at 2 µM: 65%
  activity at 20 µM: 15.4%

## N#Cc1c(C2CCC(F)(F)CC2)nn2c(=O)c3ccccc3[nH]c12 [Example 52, 2-(4,4-Difluorocyclohexyl)-9-oxo-4H-pyrazolo[5,1-b]quinazoline-3-carbonitrile]
  activity at 2 µM: 110%
  activity at 20 µM: 76.9%

## N#Cc1c(OC2CCN(c3ncc(Cl)cn3)CC2)nn2c(=O)c3cc(Cl)ccc3[nH]c12 [Example 23, 7-Chloro-2-[[1-(5-chloropyrimidin-2-yl)-4-piperidyl]oxy]-9-oxo-4H-pyrazolo[5,1-b]quinazoline-3-carbonitrile]
  activity at 2 µM: 8.2%
  activity at 20 µM: -2.9%

## CC(C)OC(=O)c1c(-c2ccc(Cl)cc2Cl)nn2c(=O)c3ccccc3[nH]c12 [Example 68, Isopropyl 2-(2,4-dichlorophenyl)-9-oxo-4H-pyrazolo[5,1-b]quinazoline-3-carboxylate]
  activity at 2 µM: 90.5%
  activity at 20 µM: 110%

## NC(=O)c1c(C2(c3ccc(Cl)cc3)CC2)nn2c(=O)c3ccccc3[nH]c12 [Example 30, 2-[1-(4-Chlorophenyl)cyclopropyl]-9-oxo-4H-pyrazolo[5,1-b]quinazoline-3-carboxamide]
  activity at 2 µM: 101%
  activity at 20 µM: 22.1%

## N#Cc1c(-c2ccc(Cl)cc2Cl)nn2c(=O)c3cc(OCc4ccccc4)ccc3[nH]c12 [Example 56, 7-Benzyloxy-2-(2,4-dichlorophenyl)-9-oxo-4H-pyrazolo[5,1-b]quinazoline-3-carbonitrile]
  activity at 2 µM: 49.6%

## NC(=O)c1c(CC2CC2)nn2c(=O)c3ccccc3[nH]c12 [Example 53, 2-(Cyclopropylmethyl)-9-oxo-4H-pyrazolo[5,1-b]quinazoline-3-carboxamide]
  activity at 2 µM: 75.2%
  activity at 20 µM: 123%

## N#Cc1c(C2CCC(c3ccc(Cl)cc3)CC2)nn2c(=O)c3cc(C4CC4)ccc3[nH]c12 (centres unmarked) [Example 13, 2-[4-(4-Chlorophenyl)cyclohexyl]-7-cyclopropyl-9-oxo-4H-pyrazolo[5,1-b]quinazoline-3-carbonitrile]
  activity at 2 µM: -3.1%
  activity at 20 µM: -3.6%
  IC50: 0.34 µM
